Measured values reported in patent US8273760B2, “Indolo[3,2-c]quinoline compounds” (Kaohsiung Medical University, priority 2008, dated 2012).
Counter-ions that a name gives are not always drawn. Like-named read-outs stand apart in the source and are kept apart here.

Key:
telomerase = telomerase (Homo sapiens, UniProt O14746); assay: Telomeric Repeat Amplification Protocol (TRAP) assay, cell-free; details: 0.5 μg total cell extract from H1299 human lung cancer cells, FIG. 1
HL-60 (TB) = assay: In vitro anticancer assay (NCI 60 cell line panel), HL-60 (TB); format: cell-based; details: Homo sapiens, leukemia
Protocol: (§1) Selected compounds were evaluated in vitro against the NCI's full panel of 60 cancer cell lines derived from nine cancer cell types, including: leukemia (CCRF-CEM, HL-60 (TB), K-562, MOLT-4, RPMI-8226, and SR); non-small cell lung cancer (A549/ATCC, EKVX, HOP-62, HOP-92, NCI-H226, NCI-H23, NCI-H322M, and NCI-H522); colon cancer (COLO 205, HCC-2998, HCT-116, HCT-15, HT29, KM12, and SW-620); CNS cancer (SF-268, SF-295, SF-539, SNB-19, SNB-75, and U251); melanoma (LOX IMVI, MALME-3M, M14, SK-MEL-2, SK-MEL-28, SK-MEL-5, UACC-62, and UACC-257); ovarian cancer (IGROV1, OVCAR-3, OVCAR-4, OVCAR-5, OVCAR-8, and SK-OV-3); renal cancer (786-0, A498, ACHN, CAKI-1, RXF 393, SN12C, TK-10, and UO-31); prostate cancer (PC-3 and DU-145); and breast cancer (MCF7, MCF7/ADR-RES, MDA-MB-231/ATCC, HS 578T, MDA-MB-435, MDA-N, and T-47D). For each compound, dose-response curves for each cell line were measured with five different drug concentrations, and the concentration causing 50% cell growth inhibition (GI50) compared with the control was calculated. The mean GI50 values of each tested compound for all the 60 tumor cell lines were also calculated.

K-562 = assay: In vitro anticancer assay (NCI panel), K-562; format: cell-based; details: Homo sapiens, K562; K-562, leukemia
Protocol: as §1

SR = assay: In vitro anticancer assay (NCI panel), SR; format: cell-based; details: Homo sapiens, leukemia
Protocol: as §1

A549/ATCC = assay: In vitro anticancer assay (NCI panel), A549/ATCC; format: cell-based; details: Homo sapiens, non-small cell lung cancer
Protocol: as §1

HOP-62 = assay: In vitro anticancer assay (NCI panel), HOP-62; format: cell-based; details: Homo sapiens; HOP-62, non-small cell lung cancer
Protocol: as §1

NCI-H460 = assay: In vitro anticancer assay (NCI panel), NCI-H460; format: cell-based; details: Homo sapiens; NCI-H460, non-small cell lung cancer
Protocol: as §1

COLO 205 = assay: In vitro anticancer assay (NCI panel), COLO 205; format: cell-based; details: Homo sapiens; COLO 205, colon cancer
Protocol: as §1

HCT-116 = assay: In vitro anticancer assay (NCI panel), HCT-116; format: cell-based; details: Homo sapiens; HCT-116, colon cancer
Protocol: as §1

HT29 = assay: In vitro anticancer assay (NCI panel), HT29; format: cell-based; details: Homo sapiens, HT-29; HT29, colon cancer
Protocol: as §1

SF-268 = assay: In vitro anticancer assay (NCI panel), SF-268; format: cell-based; details: Homo sapiens; SF-268, CNS cancer
Protocol: as §1

SF-295 = assay: In vitro anticancer assay (NCI panel), SF-295; format: cell-based; details: Homo sapiens; SF-295, CNS cancer
Protocol: as §1

SNB-19 = assay: In vitro anticancer assay (NCI panel), SNB-19; format: cell-based; details: Homo sapiens; SNB-19, CNS cancer
Protocol: as §1

LOX IMVI = assay: In vitro anticancer assay (NCI panel), LOX IMVI; format: cell-based; details: Homo sapiens, melanoma
Protocol: as §1

SK-MEL-2 = assay: In vitro anticancer assay (NCI panel), SK-MEL-2; format: cell-based; details: Homo sapiens; SK-MEL-2, melanoma
Protocol: as §1

UACC-62 = assay: In vitro anticancer assay (NCI panel), UACC-62; format: cell-based; details: Homo sapiens; UACC-62, melanoma
Protocol: as §1

OVCAR-3 = assay: In vitro anticancer assay (NCI panel), OVCAR-3; format: cell-based; details: Homo sapiens; OVCAR-3, ovarian cancer
Protocol: as §1

OVCAR-5 = assay: In vitro anticancer assay (NCI panel), OVCAR-5; format: cell-based; details: Homo sapiens; OVCAR-5, ovarian cancer
Protocol: as §1

OVCAR-8 = assay: In vitro anticancer assay (NCI panel), OVCAR-8; format: cell-based; details: Homo sapiens; OVCAR-8, ovarian cancer
Protocol: as §1

786-0 = assay: In vitro anticancer assay (NCI panel), 786-0; format: cell-based; details: Homo sapiens; 786-0, renal cancer
Protocol: as §1

ACHN = assay: In vitro anticancer assay (NCI panel), ACHN; format: cell-based; details: Homo sapiens, renal cancer
Protocol: as §1

SN12C = assay: In vitro anticancer assay (NCI panel), SN12C; format: cell-based; details: Homo sapiens, renal cancer
Protocol: as §1

PC-3 = assay: In vitro anticancer assay (NCI panel), PC-3; format: cell-based; details: Homo sapiens; PC-3, prostate cancer
Protocol: as §1

DU-145 = assay: In vitro anticancer assay (NCI panel), DU-145; format: cell-based; details: Homo sapiens; DU-145, prostate cancer
Protocol: as §1

MCF7 = assay: In vitro anticancer assay (NCI panel), MCF7; format: cell-based; details: Homo sapiens; MCF7, breast cancer
Protocol: as §1

MDA-MB-231/ATCC = assay: In vitro anticancer assay (NCI panel), MDA-MB-231/ATCC; format: cell-based; details: Homo sapiens, breast cancer
Protocol: as §1

MDA-MB-435 = assay: In vitro anticancer assay (NCI panel), MDA-MB-435; format: cell-based; details: Homo sapiens; MDA-MB-435, breast cancer
Protocol: as §1

[1] = tested on: NCI's full panel of 60 cancer cell lines; assay: In vitro anticancer assay, all cell lines of the NCI panel; format: cell-based, human
Protocol: as §1

[2] = Homo sapiens, mean values of over all cell lines tested, read-out: MG MID (mean GI50)

Chain of telomerase (O14746 whole entry): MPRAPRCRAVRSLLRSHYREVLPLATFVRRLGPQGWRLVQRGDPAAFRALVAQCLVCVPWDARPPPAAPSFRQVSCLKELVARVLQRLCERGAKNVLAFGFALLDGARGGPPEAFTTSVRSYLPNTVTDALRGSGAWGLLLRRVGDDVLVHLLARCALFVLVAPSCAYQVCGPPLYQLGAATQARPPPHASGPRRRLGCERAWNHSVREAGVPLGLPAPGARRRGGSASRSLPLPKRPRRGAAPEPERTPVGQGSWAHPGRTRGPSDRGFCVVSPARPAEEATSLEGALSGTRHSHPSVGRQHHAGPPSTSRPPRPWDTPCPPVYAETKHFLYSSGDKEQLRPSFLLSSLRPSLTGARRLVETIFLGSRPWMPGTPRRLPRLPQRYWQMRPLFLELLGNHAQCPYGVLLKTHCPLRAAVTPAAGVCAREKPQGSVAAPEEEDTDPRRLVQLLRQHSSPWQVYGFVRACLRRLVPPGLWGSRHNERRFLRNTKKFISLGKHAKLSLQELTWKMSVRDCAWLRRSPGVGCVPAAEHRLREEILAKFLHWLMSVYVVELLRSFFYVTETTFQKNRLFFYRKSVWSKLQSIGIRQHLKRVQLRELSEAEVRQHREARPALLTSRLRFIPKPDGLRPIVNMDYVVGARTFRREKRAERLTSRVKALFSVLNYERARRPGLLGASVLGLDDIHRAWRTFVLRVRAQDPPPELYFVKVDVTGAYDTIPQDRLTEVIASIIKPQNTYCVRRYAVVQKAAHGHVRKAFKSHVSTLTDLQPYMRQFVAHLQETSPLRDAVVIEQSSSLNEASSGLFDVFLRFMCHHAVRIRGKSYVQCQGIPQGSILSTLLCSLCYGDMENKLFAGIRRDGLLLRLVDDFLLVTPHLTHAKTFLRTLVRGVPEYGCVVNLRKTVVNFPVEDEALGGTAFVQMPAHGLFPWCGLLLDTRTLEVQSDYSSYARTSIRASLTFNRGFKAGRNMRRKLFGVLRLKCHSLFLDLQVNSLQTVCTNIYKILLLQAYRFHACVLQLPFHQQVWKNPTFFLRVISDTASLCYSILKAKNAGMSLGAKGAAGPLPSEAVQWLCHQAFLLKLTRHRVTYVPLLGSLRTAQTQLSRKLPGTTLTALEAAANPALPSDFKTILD

Row | Compound | concentration that completely inhibited telomerase activity (telomerase) | GI50 (HL-60 (TB)) [nM] | GI50 (K-562) [nM] | GI50 (SR) [nM] | GI50 (A549/ATCC) [nM] | GI50 (HOP-62) [nM] | GI50 (NCI-H460) [nM] | GI50 (COLO 205) [nM] | GI50 (HCT-116) [nM] | GI50 (HT29) [nM] | GI50 (SF-268) [nM] | GI50 (SF-295) [nM] | GI50 (SNB-19) [nM] | GI50 (LOX IMVI) [nM] | GI50 (SK-MEL-2) [nM] | GI50 (UACC-62) [nM] | GI50 (OVCAR-3) [nM] | GI50 (OVCAR-5) [nM] | GI50 (OVCAR-8) [nM] | GI50 (786-0) [nM] | also measured
1 | 6-[2-(3,4-dihydroxyphenyl)ethylamino]-11 indolo[3,2-c]quinoline hydrochloride [Compound 7b] | approximately 2 nM | – | – | – | – | – | – | – | – | – | – | – | – | – | – | – | – | – | – | – | –
2 | c1ccc2c(c1)nc(NCCN1CCNCC1)c1c3ccccc3[nH]c21 (as salt: hydrochloride) [Compound 5, N-(11H-Indolo[3,2-c]quinolin-6-yl)-2-(piperazin-1-yl)ethanamine] | – | – | – | – | – | – | – | – | – | – | – | – | – | – | – | – | – | – | – | – | melting point: 210 to 211 °C
3 | c1ccc2c(c1)nc(NCCN1CCNCC1)c1c3ccccc3[nH]c21 [Compound 5, N-(11H-Indolo[3,2-c]quinolin-6-yl)-2-(piperazin-1-yl)ethanamine] | approximately 0.02 nM | 290 | 70 | 180 | 110 | 400 | 190 | 220 | 70 | 120 | 500 | 310 | 300 | 200 | 1060 | 1260 | 270 | 540 | 40 | 220 | GI50 (ACHN): 380 nM; GI50 (SN12C): 80 nM; GI50 (PC-3): 310 nM; GI50 (DU-145): 160 nM; GI50 (MCF7): 80 nM; GI50 (MDA-MB-231/ATCC): 340 nM; GI50 (MDA-MB-435): 630 nM; GI50 [1, 2]: ~300 nM; GI50 ([1]; mean values of over all cell lines tested, read-out: MG MID (mean GI50)): 350 nM
4 | NCCCN1CCN(CCCNc2nc3ccccc3c3[nH]c4ccccc4c23)CC1 [Compound 6, {3-[4-(3-Aminopropyl)piperazin-1-yl]propyl}(11H-indolo[3,2-c]quinolin-6-yl)amine hydrochloride] | approximately 0.02 nM | 420 | 70 | 350 | 200 | 240 | 300 | 210 | 180 | 140 | 310 | 140 | 270 | 290 | 180 | 210 | 240 | 250 | 40 | 260 | GI50 (ACHN): 200 nM; GI50 (SN12C): < 10 nM; GI50 (PC-3): 350 nM; GI50 (DU-145): 120 nM; GI50 (MCF7): 120 nM; GI50 (MDA-MB-231/ATCC): 230 nM; GI50 (MDA-MB-435): 370 nM; GI50 [1, 2]: ~300 nM
5 | Oc1ccc(CCNc2nc3ccccc3c3[nH]c4ccccc4c23)cc1 [Compound 7a, 6-[2-(4-Hydroxyphenyl)ethylamino]-11H-indolo[3,2-c]quinoline hydrochloride] | approximately 2 nM | 2400 | 1910 | 1480 | 1330 | 1630 | 1310 | 1180 | 1220 | 1420 | 1710 | 1380 | 1830 | 1590 | 1730 | 1660 | 1600 | 2890 | 1020 | 1290 | GI50 (ACHN): 1270 nM; GI50 (SN12C): 1270 nM; GI50 (PC-3): 1630 nM; GI50 (DU-145): 1450 nM; GI50 (MCF7): 1370 nM; GI50 (MDA-MB-231/ATCC): 1360 nM; GI50 (MDA-MB-435): 1600 nM; GI50 [1, 2]: 1700 nM
6 | COc1ccc(CCNc2nc3ccccc3c3[nH]c4ccccc4c23)cc1OC [Compound 7c, 6-[2-(3,4-dimethoxyphenyl)ethylamino]-11H-indolo[3,2-c]quinoline hydrochloride] | approximately 2 nM | – | – | – | – | – | – | – | – | – | – | – | – | – | – | – | – | – | – | – | –
7 | Cl.OCCNc1nc2ccccc2c2[nH]c3ccccc3c12 [Compound 7d, 2-(11H-indolo[3,2-c]quinolin-6-ylamino)ethanol hydrochloride] | – | 560 | 460 | 210 | 410 | 580 | 290 | 310 | 230 | 280 | 560 | 450 | 410 | 360 | 570 | 1150 | 470 | 1030 | 360 | 450 | GI50 (ACHN): 160 nM; GI50 (SN12C): 220 nM; GI50 (DU-145): 690 nM; GI50 (MCF7): 370 nM; GI50 (MDA-MB-231/ATCC): 430 nM; GI50 (MDA-MB-435): 410 nM; GI50 [1, 2]: 460 nM; melting point: 344 to 345 °C
8 | CN(CCCNc1nc2ccccc2c2[nH]c3ccccc3c12)CCCNc1nc2ccccc2c2[nH]c3ccccc3c12.Cl [Compound 8b, N,N-bis-[3-(11H-indolo[3,2-c]quinolin-6-yl)aminopropyl]-N-methylamine hydrochloride] | approximately 0.02 nM | < 10 | < 10 | < 10 | < 10 | < 10 | < 10 | 20 | < 10 | < 10 | < 10 | < 10 | < 10 | < 10 | 70 | 60 | 50 | 80 | < 10 | < 10 | GI50 (ACHN): 20 nM; GI50 (SN12C): < 10 nM; GI50 (PC-3): 70 nM; GI50 (DU-145): 50 nM; GI50 (MCF7): < 10 nM; GI50 (MDA-MB-231/ATCC): 90 nM; GI50 (MDA-MB-435): 110 nM; GI50 [1, 2]: < 20 nM; GI50 ([1]; Homo sapiens, span over the cell lines of Table 2, read-out: GI50 value for each cell line (span over the cell lines)): 10 to 110 nM
9 | CN(CCCN)CCCNc1nc2ccccc2c2[nH]c3ccccc3c12 [Compound 10, N^1-[3-(11H-Indolo[3,2-c]quinolin-6-ylamino)propyl]-N^1-methylpropane-1,3-diamine hydrochloride] | – | 90 | 40 | 370 | 80 | 150 | 310 | 180 | 80 | 150 | 250 | 130 | 150 | 210 | 200 | 190 | 220 | 150 | 40 | 90 | GI50 (ACHN): 380 nM; GI50 (SN12C): 70 nM; GI50 (PC-3): 320 nM; GI50 (DU-145): 240 nM; GI50 (MCF7): 50 nM; GI50 (MDA-MB-231/ATCC): 170 nM; GI50 (MDA-MB-435): 190 nM; GI50 [1, 2]: 180 nM
